Assay results published in patent publication US8815305B2, “Composition containing a plant extract and process for producing same” (BASF Beauty Care Solutions France S.A.S., priority 2003, dated 2014).

What was measured:
[1] = target: T1, human leucocyte elastase (HLE) (Homo sapiens, UniProt P08246); conditions: cited from earlier work
T1 sequence (P08246 30-267): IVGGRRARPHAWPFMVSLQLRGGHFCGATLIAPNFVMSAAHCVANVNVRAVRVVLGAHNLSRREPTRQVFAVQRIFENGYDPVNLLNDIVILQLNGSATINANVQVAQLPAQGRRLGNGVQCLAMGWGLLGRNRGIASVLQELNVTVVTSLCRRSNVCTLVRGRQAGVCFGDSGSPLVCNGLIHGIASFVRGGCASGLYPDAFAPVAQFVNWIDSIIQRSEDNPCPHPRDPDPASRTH

human keratinocytes = assay: Cytophotoprotection of human keratinocytes against UV-B radiation; type: cell-based; conditions: for Cell number, % against control / Released LDH, % against control / Released PGE2, % against control: UVB
Text: UV-B irradiation (from 280 to 320 nm) of the human skin induces a cutaneous inflammation mainly by activation of an enzyme (phospholipase A2 or PLA2), which releases arachidonic acid from the cell membranes of the cells of the skin (V. A. De Leo, D. Hanson, I. B. Weinstein and L. C. Harber—Ultraviolet radiation stimulates the release of arachidonic acid from mammalian cells in culture—Photochemistry and Photobiology (1985) volume 41N°1 pages 51-56). Then other specific enzymes (so called cyclo-oxygenases) transform arachidonic acid in active components called prostaglandines (or PG) which are secreted out of the cells. The fixation of certain prostaglandins (PGE2) on specific skin receptors is followed by redness and swelling as after a sunburn. On cultured human cells, these UV-B effects on cell membranes are associated with a release in the supernatant medium of a cytoplasmic enzyme, the Lactate Dehydrogenase or LDH (B. Bonnekoh, B. Farkas, J. Geisel and G. Mahrle—Lactate dehydrogenase release as an indicator of dithranol-induced membrane injury in cultured human keratinocytes. Dermatological research (1990) volume 282, pages 325-331).
Expressed in keywords, the experiments were carried out as follows: • Inoculation of human keratinocytes within growth medium (standard medium with fetal calf serum (FCS) • Incubation 3 days at 37° C., CO2=5% • Exchange of growth medium with balanced salt solution containing ingredient to be tested • Irradiation of keratinocytes by UV-B: 50 mJ/cm^2 (DUKE GL40E lamp) (A DUKE GL40E lamp is a certain type of marketed sunlamp well known to the skilled artisan) • Incubation 1 day at 37° C., CO2=5% • Numeration of adherent cells after trypsination (trypsination is a process based on the use of the enzyme trypsine which is a protease allowing the retrieval of cell from the support in order to seed the cells into a bigger flask and therefore to expand the cell culture) • Recovery of supernatant medium for spectrophotometric determination of the activity of LDH, and PGE2 by ELISA method

bovine trypsin = target: T2, bovine trypsin (Bos taurus, UniProt P00760); conditions: competitive or non-competitive; cited from earlier work
T2 sequence (P00760 24-246): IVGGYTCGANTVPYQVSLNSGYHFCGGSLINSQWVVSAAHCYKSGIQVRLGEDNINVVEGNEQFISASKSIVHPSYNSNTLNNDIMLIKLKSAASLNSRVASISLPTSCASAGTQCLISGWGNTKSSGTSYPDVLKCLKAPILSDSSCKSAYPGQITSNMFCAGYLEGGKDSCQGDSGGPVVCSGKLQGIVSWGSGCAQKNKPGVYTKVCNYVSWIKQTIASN

bovine chymotrypsin = bovine chymotrypsin (Bos taurus, UniProt P00766); conditions: competitive or non-competitive; cited from earlier work
[2] = tested on: 5-lipoxygenase products in human neutrophils; conditions: cited from earlier work
[3] = tested on: Croton oil induced oedema of the mouse ear; conditions: cited from earlier work
human fibroblasts = assay: Cytophotoprotection of human fibroblasts against UV-A radiation; type: cell-based
Experimental: The cytoprotection against UV-A radiation was evaluated by a test on human fibroblasts because UV-A radiation penetrates through the epidermis until the derma where it induces oxidative stress (DALLE CARBONARE M, PATHAK M A; Skin photosensitising agents and the role of reactive oxygen species in photoaging; JOURNAL OF PHOTOCHEMISTRY & PHOTOBIOLOGY, 1992, 14, 1-2, pages 105-124. This oxidative stress was evaluated in vitro by measuring of the level of released MDA (malonaldehyde) and of intracellular GSH (reduced glutathione) (Morliere P., Moisan A., Santus R., Huppe G., Mazière J. C., Dubertret L.: UV-A induced lipid peroxydation in cultured human fibroblasts. Biochim. Biophys. Acta, 1084, 3, pages 261-269 (1991)).
Expressed in keywords, the experiments were carried out as follows: • Inoculation of human fibroblasts within a growth medium (standard medium with foetal calf serum (FCS) • Incubation 3 days at 37° C., CO2=5% • Exchange of growth medium with balanced salt solution • Irradiation of fibroblasts by UV-A: 20 J/cm^2 (black light TFWN lamp) (A TFWN lamp is a certain type of marketed sunlamp well known to the skilled artisan) • Exchange of growth medium with standard medium without FCS but containing ingredient to be tested • Incubation 3 days at 37° C., CO2=5% • Recovery of supernatant medium for spectrophotometric determination of the malonaldialdehde (or MDA) rate • Cells number determined by evaluation of the levels of cellular proteins (Bradford's method) and the rate of cellular GSH was evaluated according to the method of Hissin

CC1(C)[C@@H](O)CC[C@]2(C)[C@H]3C(=O)C=C4[C@@H]5C[C@@](C)(C(=O)O)CC[C@]5(C)CC[C@@]4(C)[C@]3(C)CC[C@@H]12 [18 beta-glycyrrhetic acid]
interaction with the ursolic acid binding site of HLE [1]: can also interact with this binding site

CC(=O)Oc1ccccc1C(=O)O [Aspirin]
UV toxic effects on the number of viable cells (cell number and released LDH) (human keratinocytes): distinctly reduced | release of inflammatory mediators such as PGE2 (human keratinocytes): distinctly reduced | Cell number, % against control (human keratinocytes; dose 0.0003%): 67% | Released LDH, % against control (human keratinocytes; dose 0.0003%): 13% | Released PGE2, % against control (human keratinocytes; dose 0.0003%): 0%

COc1ccc2c(c1)c(CC(=O)O)c(C)n2C(=O)c1ccc(Cl)cc1 [Indomethacine, Indomethacin]
UV toxic effects on the number of viable cells (cell number and released LDH) (human keratinocytes): moderately reduced | release of inflammatory mediators such as PGE2 (human keratinocytes): drastically reduced | Cell number, % against control (human keratinocytes): 34% | Released LDH, % against control (human keratinocytes): 77% | Released PGE2, % against control (human keratinocytes): 0%

C=C(C)[C@@H]1CC[C@]2(C)CC[C@]3(C)C(CC[C@@H]4[C@@]5(C)CC[C@H](OC(=O)CCCCCCC/C=C/C/C=C/CCCCC)C(C)(C)[C@@H]5CC[C@]43C)[C@@H]12 (some centres unmarked) [Lupeol linoleate]
Ki (bovine trypsin): 7 µM

CCCCCCCCCCCCCCCC(=O)O[C@H]1CC[C@]2(C)[C@H]3CC=C4[C@@H]5[C@@H](C)[C@H](C)CC[C@@]5(C)CC[C@@]4(C)[C@]3(C)CC[C@H]2C1(C)C [alpha-Amyrin palmitate]
Ki (bovine chymotrypsin): 6 µM

CC(=O)O[C@H]1CC[C@]2(C)[C@H]3CC=C4[C@@H]5[C@@H](C)[C@H](C)CC[C@]5(C)CC[C@@]4(C)[C@]3(C)CC[C@H]2C1(C)C [alpha-amyrin acetate]
5-HETE synthesis [2]: reduced | LTB4 synthesis [2]: without effect

CCCCCC=CCC=CCCCCCCCC(=O)OC1CCC2(C)C(CCC3(C)C2CC=C2C4C(C)C(C)CCC4(C)CCC23C)C1(C)C (stereo not drawn) [alpha-amyrin linoleate]
Ki (bovine chymotrypsin): 28 µM | Ki (bovine trypsin): 16 µM

CC(=O)O[C@H]1CC[C@]2(C)[C@H]3CC=C4[C@@H]5CC(C)(C)CC[C@]5(C)CC[C@@]4(C)[C@]3(C)CC[C@H]2C1(C)C [beta-amyrin acetate]
5-HETE synthesis [2]: reduced | LTB4 synthesis [2]: without effect

CC1(C)CC[C@]2(C)CC[C@]3(C)C(=CC[C@@H]4[C@@]5(C)CC[C@H](O)C(C)(C)[C@@H]5CC[C@]43C)[C@@H]2C1 [beta-amyrin]
5-HETE synthesis [2]: reduced | LTB4 synthesis [2]: without effect

CCCCCCCCCCCCCCCC(=O)OC1CCC2(C)C(CCC3(C)C2CCC2C4C(C)C(C)=CCC4(C)C(O)CC23C)C1(C)C (centres unmarked) [faradiol-3-palmitic acid ester]
anti-oedematous activity [3]: nearly the same dose dependent anti-oedematous activity

CC1=CC[C@@]2(C)[C@H]([C@@H]1C)[C@H]1CC[C@@H]3[C@@]4(C)CC[C@H](O)C(C)(C)[C@@H]4CC[C@@]3(C)[C@]1(C)C[C@@H]2O [faradiol]
anti-oedematous activity [3]: more active than its esters and than psi-taraxasterol | anti-oedematous effect compared with indomethacin ([3]; equimolar dose): same effect

CC1(C)CC[C@]2(C(=O)O)CC[C@]3(C)C(=CC[C@@H]4[C@@]5(C)CC[C@H](O)[C@@](C)(CO)[C@@H]5CC[C@]43C)[C@@H]2C1 [hederagenin]
interaction with the ursolic acid binding site of HLE [1]: can also interact with this binding site

C=C(C)[C@@H]1CC[C@]2(C)CC[C@]3(C)[C@H](CC[C@@H]4[C@@]5(C)CC[C@H](OC(=O)CCCCCCCCCCCCCCC)C(C)(C)[C@@H]5CC[C@]43C)[C@@H]12 [lupeol palmitate]
Ki (bovine trypsin): 10 µM

CC1=CCC2(C)CCC3(C)C(CCC4C5(C)CCC(O)C(C)(C)C5CCC43C)C2C1C (centres unmarked) [psi-taraxasterol]
anti-oedematous activity [3]: slightly lower effect

Tocopherol
protection of human fibroblasts from toxic UVA effects (human fibroblasts): strongly protected | GSH/protein, % against control (human fibroblasts; UV-A 20 J/cm^2, dose 0.0003%): 89% | Released MDA, % against control (human fibroblasts; UV-A 20 J/cm^2, dose 0.0003%): 23% | cell's protein, % against control (human fibroblasts; UV-A 20 J/cm^2, dose 0.0003%): 106%

faradiol-3-myristic acid ester
anti-oedematous activity [3]: nearly the same dose dependent anti-oedematous activity
